Experimental data as given in patent US20250129078A1, “ERBB2 INHIBITORS” (Cogent Biosciences, Inc., priority 2023, published 2025).

Experiments:
[1] = Blood brain barrier penetration assay in CD-1 mice (short oral absorption model, Kpuu brain); assay type: in vivo; settings: mouse, brain and plasma, male CD-1 mice, 1 h post-dose, Kpuu brain = conc (brain)/conc (plasma) x (fu brain/fu plasma)
Protocol: In vitro plasma and brain binding assays were carried out using the equilibrium dialysis method. EDTA-anticoagulated plasma and diluted brain homogenate (1:3 with DPBS pH 7.4) were spiked with 2 μM test compound and dialyzed against an equal volume of 100 μL 100 mM sodium phosphate buffer (pH 7.4) at 37° C. for 4 h in a slowly rotated plate. At the end of the dialysis 50 μL aliquots from the buffer side and matrix side of the dialysis device were taken into new 96-well plates. An equal volume of opposite blank matrix (buffer or matrix) in each sample was added to reach a final volume of 100 μL. All samples were processed by protein precipitation for LC/MS/MS analysis. Unbound fraction (fu) of test compound was calculated by the ratio of buffer side response to the brain homogenate/plasma side response, and unbound fraction (fu,pl and fu,br) of test compound in non-diluted plasma and brain tissue were calculated from measured fu in homogenate and plasma with the following equation: fu,pl or fu,br=1/D/((1/(F/T)-1)+1/D). F is the free compound concentration as determined by the calculated concentration on the buffer side of the membrane and T is the total compound concentration as determined by the calculated concentration on the matrix side of the membrane. D is the dilution factor (D equals 1 for plasma, and 4 for brain).
A short oral absorption model is an in-vivo screening model to identify brain penetration of a compound. Three male CD-1 mice were orally dosed with an appropriate vehicle. At the 1 h timepoint post-dose, blood samples were collected via cardiac puncture, placed into EDTA anti-coagulated tubes, and spiked with 1% 1 mM quinidine (aq). The samples were placed on wet ice until centrifugation at 4000×g for 10 min. Brain tissue was rinsed with saline and the liquid was drained. The brains were weighed and transferred to tubes for homogenization. Each tube contained 1 g tissue, 9 mL buffer (1:2 v/v MeOH:15 mM PBS), and a spike of 1% 1 mM quinidine (aq). All samples were stored at −80° C. prior to LC/MS/MS analysis. Standards were prepared by spiking blank plasma and brain homogenate. Aliquots (10 μL) of sample, calibration standard, quality control, dilution quality control, single blank, and double blank were added to the 96-well plate respectively. Homogenized brain tissue along with plasma samples were precipitated by adding 190 μL cold MeCN containing internal standard (the double blank sample was quenched with 190 L MeCN). The mixture was vortex-mixed for 5 min at 1000 rpm and centrifuged for 10 min at 3220×g, 4° C. […] The free fraction of test compound in biological matrix was determined by using in vitro plasma and brain tissue free fraction. Kpuu brain was calculated by the equation: Kpuu brain=cone (brain)/conc (plasma)×(fu brain/fu plasma).

ErbB2 V777L = ErbB2 V777L (Homo sapiens (Human), UniProt P04626, V777L); test: ErbB enzyme assay (CisBio HTRF-KinEASE-TK), ErbB2 V777L; assay type: biochemical
Summary of the method: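 HTRF KinEASE-TK tyrosine-kinase read-out of substrate phosphorylation after a final 1 h at ambient temperature, from the 655/620 nm emission ratio.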

EGFR WT = EGFR WT (Homo sapiens (Human), UniProt P00533); test: ErbB enzyme assay (CisBio HTRF-KinEASE-TK), EGFR WT; assay type: biochemical; settings: ATP at Km (25 μM), 1 h incubation
Summary of the method: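 Potency comes from a homogeneous time-resolved fluorescence kinase format measuring tyrosine substrate phosphorylation. Reactions and detection steps each run 1 h at ambient temperature. IC50 values are interpolated from 4-parameter logistic fits of percent-of-control data.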

ErbB2 mutant L755S = ErbB2 mutant L755S (Homo sapiens (Human), UniProt P04626, L755S); test: ErbB cellular phosphorylation assay (phospho-ErbB2 ELISA), HEK-293 cells expressing ErbB2 L755S; assay type: cell-based; settings: 1 h treatment
Protocol: Cells were seeded in poly-D-lysine coated, 96-well plates at a density of 50,000 cells/well in complete medium (DMEM supplemented with 10% fetal bovine serum and G418) and incubated for 24 h at 37° C., 5% CO2 prior to treatment. Cells were treated with compound using three-fold dilutions at final concentrations ranging from […] for 1 h at 37° C., 5% CO2. EGFR-WT cells were stimulated with 500 ng/mL recombinant human EGF (R&D Systems, 236-EG) for an additional 5 min. After compound incubation, medium was removed from the plate, and cells were lysed in buffer containing protease and phosphatase inhibitors ([…]). Cell lysates were analyzed by enzyme-linked immunosorbent assay (ELISA). The ELISAs were performed to measure phosphorylated ErbB2 or phosphorylated EGFR levels, respectively (R&D Systems, DYC-1768, Human Phospho-ErbB2 DuoSet ELISA; DYC1095, Human Phospho-EGFR DuoSet IC ELISA) according to the manufacturer's instructions. Absorbance was measured at 450 nm using a BioTek Cytation 5 plate reader (Agilent, Santa Clara, CA) and IC50 values were calculated using a 4-parameter fit.

EGFR wild type = EGFR wild type (Homo sapiens (Human), UniProt P00533); test: ErbB cellular phosphorylation assay (phospho-EGFR ELISA), HEK-293 cells expressing EGFR wild type, EGF stimulated; assay type: cell-based; settings: 1 h treatment
Protocol: HEK-293 cells were engineered to constitutively express ErbB2 mutant L755S or EGFR wild type (constructs obtained from GenScript, Piscataway, NJ). Cells were seeded in poly-D-lysine coated, 96-well plates at a density of 50,000 cells/well in complete medium (DMEM supplemented with 10% fetal bovine serum and G418) and incubated for 24 h at 37° C., 5% CO2 prior to treatment. Cells were treated with compound using three-fold dilutions at final concentrations ranging from […] for 1 h at 37° C., 5% CO2. EGFR-WT cells were stimulated with 500 ng/mL recombinant human EGF (R&D Systems, 236-EG) for an additional 5 min. After compound incubation, medium was removed from the plate, and cells were lysed in buffer containing protease and phosphatase inhibitors ([…]). Cell lysates were analyzed by enzyme-linked immunosorbent assay (ELISA). The ELISAs were performed to measure phosphorylated ErbB2 or phosphorylated EGFR levels, respectively (R&D Systems, DYC-1768, Human Phospho-ErbB2 DuoSet ELISA; DYC1095, Human Phospho-EGFR DuoSet IC ELISA) according to the manufacturer's instructions. Absorbance was measured at 450 nm using a BioTek Cytation 5 plate reader (Agilent, Santa Clara, CA) and IC50 values were calculated using a 4-parameter fit.

EGFR WT, sequence (P00533 25-1210): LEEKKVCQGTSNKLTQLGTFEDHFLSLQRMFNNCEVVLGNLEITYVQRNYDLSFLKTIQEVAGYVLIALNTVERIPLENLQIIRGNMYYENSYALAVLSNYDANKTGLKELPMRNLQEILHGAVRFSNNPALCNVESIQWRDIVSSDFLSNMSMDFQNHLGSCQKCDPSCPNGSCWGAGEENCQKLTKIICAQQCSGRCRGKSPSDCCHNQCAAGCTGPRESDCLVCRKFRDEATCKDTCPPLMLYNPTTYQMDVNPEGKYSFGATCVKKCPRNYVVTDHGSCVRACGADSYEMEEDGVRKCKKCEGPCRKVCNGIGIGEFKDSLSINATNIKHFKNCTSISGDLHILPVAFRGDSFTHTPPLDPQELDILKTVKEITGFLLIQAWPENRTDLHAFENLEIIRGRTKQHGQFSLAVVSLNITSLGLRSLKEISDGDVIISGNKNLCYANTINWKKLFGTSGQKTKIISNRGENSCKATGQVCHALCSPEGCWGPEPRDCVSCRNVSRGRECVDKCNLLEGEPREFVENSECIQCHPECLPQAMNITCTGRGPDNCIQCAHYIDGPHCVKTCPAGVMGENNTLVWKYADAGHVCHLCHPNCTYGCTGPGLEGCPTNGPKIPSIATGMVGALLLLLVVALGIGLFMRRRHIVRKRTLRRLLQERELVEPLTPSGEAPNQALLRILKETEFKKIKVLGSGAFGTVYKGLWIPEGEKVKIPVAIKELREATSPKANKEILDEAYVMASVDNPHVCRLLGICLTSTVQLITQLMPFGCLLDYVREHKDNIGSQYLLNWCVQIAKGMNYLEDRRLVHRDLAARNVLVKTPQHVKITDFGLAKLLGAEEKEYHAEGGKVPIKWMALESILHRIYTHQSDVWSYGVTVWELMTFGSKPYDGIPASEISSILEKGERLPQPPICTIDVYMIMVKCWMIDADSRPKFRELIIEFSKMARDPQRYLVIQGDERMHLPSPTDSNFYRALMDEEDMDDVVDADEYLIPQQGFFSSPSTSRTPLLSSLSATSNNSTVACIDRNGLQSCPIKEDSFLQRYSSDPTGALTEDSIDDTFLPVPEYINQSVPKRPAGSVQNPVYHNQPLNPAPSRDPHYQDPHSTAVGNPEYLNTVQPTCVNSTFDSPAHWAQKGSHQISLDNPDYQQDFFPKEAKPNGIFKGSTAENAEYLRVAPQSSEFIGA
EGFR wild type, sequence (P00533 25-1210): as above
ErbB2 V777L, sequence (P04626 23-1255 V777L): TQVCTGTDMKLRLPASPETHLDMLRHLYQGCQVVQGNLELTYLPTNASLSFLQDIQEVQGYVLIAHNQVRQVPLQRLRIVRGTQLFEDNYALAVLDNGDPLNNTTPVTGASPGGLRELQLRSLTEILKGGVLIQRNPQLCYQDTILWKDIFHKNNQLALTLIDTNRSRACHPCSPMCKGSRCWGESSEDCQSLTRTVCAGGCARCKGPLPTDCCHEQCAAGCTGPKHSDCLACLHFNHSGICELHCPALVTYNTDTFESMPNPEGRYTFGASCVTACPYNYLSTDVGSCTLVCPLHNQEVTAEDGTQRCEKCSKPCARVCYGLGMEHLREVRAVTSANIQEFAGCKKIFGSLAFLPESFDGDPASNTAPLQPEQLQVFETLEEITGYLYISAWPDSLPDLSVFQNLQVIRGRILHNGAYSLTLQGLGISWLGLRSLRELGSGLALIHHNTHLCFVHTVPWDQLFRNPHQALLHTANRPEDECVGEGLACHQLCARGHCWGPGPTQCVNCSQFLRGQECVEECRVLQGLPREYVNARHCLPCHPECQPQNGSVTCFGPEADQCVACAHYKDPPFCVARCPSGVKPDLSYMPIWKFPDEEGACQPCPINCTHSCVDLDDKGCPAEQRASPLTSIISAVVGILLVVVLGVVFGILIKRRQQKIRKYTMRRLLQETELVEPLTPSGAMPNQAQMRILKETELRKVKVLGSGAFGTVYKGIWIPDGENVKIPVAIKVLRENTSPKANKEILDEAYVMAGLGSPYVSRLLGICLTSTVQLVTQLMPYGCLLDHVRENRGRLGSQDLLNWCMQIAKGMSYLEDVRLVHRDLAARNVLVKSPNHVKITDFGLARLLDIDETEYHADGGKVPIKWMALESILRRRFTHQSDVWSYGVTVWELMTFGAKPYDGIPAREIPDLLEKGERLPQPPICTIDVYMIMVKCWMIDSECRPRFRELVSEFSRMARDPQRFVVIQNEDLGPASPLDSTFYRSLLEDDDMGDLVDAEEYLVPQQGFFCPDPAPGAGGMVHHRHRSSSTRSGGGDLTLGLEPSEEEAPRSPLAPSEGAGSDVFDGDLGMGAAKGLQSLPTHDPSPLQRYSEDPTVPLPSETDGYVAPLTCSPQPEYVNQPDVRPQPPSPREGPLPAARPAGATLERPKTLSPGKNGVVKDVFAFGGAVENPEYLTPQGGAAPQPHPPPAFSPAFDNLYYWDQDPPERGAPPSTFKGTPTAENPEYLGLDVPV
ErbB2 mutant L755S, sequence (P04626 23-1255 L755S): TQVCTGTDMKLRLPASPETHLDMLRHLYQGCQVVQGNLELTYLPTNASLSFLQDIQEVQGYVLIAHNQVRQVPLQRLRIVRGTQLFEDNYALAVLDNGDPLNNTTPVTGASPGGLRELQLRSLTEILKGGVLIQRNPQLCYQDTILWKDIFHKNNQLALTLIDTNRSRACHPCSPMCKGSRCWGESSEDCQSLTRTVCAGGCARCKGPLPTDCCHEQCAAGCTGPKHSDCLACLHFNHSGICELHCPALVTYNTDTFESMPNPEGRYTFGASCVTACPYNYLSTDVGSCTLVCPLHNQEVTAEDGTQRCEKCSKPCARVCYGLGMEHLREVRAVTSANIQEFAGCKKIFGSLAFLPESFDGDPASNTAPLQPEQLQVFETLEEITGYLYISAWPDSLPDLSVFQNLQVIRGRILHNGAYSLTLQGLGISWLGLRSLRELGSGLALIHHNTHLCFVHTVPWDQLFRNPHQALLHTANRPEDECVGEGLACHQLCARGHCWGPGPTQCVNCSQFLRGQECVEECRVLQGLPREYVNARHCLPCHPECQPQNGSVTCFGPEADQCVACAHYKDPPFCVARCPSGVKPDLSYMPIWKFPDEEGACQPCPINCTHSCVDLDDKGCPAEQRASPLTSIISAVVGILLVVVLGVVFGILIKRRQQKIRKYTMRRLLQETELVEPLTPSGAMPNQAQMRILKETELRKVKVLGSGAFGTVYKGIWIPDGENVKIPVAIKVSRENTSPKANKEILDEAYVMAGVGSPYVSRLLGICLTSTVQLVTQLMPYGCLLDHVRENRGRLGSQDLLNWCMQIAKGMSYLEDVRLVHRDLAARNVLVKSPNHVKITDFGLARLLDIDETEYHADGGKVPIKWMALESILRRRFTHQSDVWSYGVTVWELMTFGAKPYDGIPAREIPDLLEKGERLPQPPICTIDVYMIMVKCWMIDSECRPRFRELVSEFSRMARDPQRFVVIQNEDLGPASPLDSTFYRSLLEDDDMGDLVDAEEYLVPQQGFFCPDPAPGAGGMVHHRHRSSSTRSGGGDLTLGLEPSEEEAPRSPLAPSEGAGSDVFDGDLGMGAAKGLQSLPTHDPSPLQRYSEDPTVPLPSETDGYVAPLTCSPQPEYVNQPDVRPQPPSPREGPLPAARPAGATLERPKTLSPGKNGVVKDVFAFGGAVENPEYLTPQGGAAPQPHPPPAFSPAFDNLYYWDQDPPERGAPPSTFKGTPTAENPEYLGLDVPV

SMILES	Kp uu at 1 h [1]	IC50 (ErbB2 V777L) [nM]	IC50 (EGFR WT) [nM]	IC50 (ErbB2 mutant L755S) [nM]	IC50 (EGFR wild type) [nM]
C=CC(=O)N1CCN(c2ncc3ncnc(Nc4ccc(Oc5ccc6c(c5)ncn6C)c(C)c4)c3n2)CC1 [Analog of compound 5, reference compound]	0.04	–	–	–	–
C=CC(=O)N1CCN(c2ncc3ncnc(Nc4ccc(Oc5ccc6c(c5)nnn6C)c(C)c4)c3n2)CC1(C)C [Compound 3, 1-(2,2-dimethyl-4-(8-((3-methyl-4-((1-methyl-1H-benzo[d][1,2,3]triazol-5-yl)oxy)phenyl)amino)pyrimido[5,4-d]pyrimidin-2-yl)piperazin-1-yl)prop-2-en-1-one]	–	50 to 100	100 to 500	100 to 500	≥ 5000
C=CC(=O)N1CCN(c2ncc3ncnc(Nc4ccc(Oc5ccc6c(c5)nnn6C)c(C)c4)c3n2)CC1 [Compound 5, 1-(4-(8-((3-methyl-4-((1-methyl-1H-benzo[d][1,2,3]triazol-5-yl)oxy)phenyl)amino)pyrimido[5,4-d]pyrimidin-2-yl)piperazin-1-yl)prop-2-en-1-one]	0.22	–	100 to 500	–	–
C=CC(=O)N1CCC2(C1)CN(c1ncc3ncnc(Nc4ccc(Oc5ccc6c(c5)nnn6C)c(C)c4)c3n1)C2 [Compound 15, 1-(2-(8-((3-methyl-4-((1-methyl-1H-benzo[d][1,2,3]triazol-5-yl)oxy)phenyl)amino)pyrimido[5,4-d]pyrimidin-2-yl)-2,6-diazaspiro[3.4]octan-6-yl)prop-2-en-1-one]	–	500 to 1000	≥ 1000	500 to 1000	≥ 5000
C=CC(=O)N1CCN(c2ncc3ncnc(Nc4ccc(Oc5cc(F)c6c(c5)nnn6C)c(C)c4F)c3n2)CC1 [Compound 33, 1-(4-(8-((2-fluoro-4-((7-fluoro-1-methyl-1H-benzo[d][1,2,3]triazol-5-yl)oxy)-3-methylphenyl)amino)pyrimido [5,4-d]pyrimidin-2-yl)piperazin-1-yl)prop-2-en-1-one]	–	50 to 100	< 50	< 100	≥ 5000
C=CC(=O)N1CCN(c2ncc3ncnc(Nc4cc(C)c(Oc5ccc6c(c5)ncn6C(F)F)cc4OC)c3n2)C[C@H]1C [Compound 39, (R)-1-(4-(8-((4-((1-(difluoromethyl)-1H-benzo[d]imidazol-5-yl)oxy)-2-methoxy-5-methylphenyl)amino)pyrimido[5,4-d]pyrimidin-2-y1)-2-methylpiperazin-1-yl)prop-2-en-1-one]	–	100 to 500	500 to 1000	100 to 500	≥ 5000
C=CC(=O)N1CCN(c2ncc3ncnc(Nc4ccc(Oc5cc(F)c6c(c5)nnn6C)c(C)c4F)c3n2)C[C@H]1C [Compound 49, (R)-1-(4-(8-((2-fluoro-4-((7-fluoro-1-methyl-1H-benzo[d][1,2,3]triazol-5-yl)oxy)-3-methylphenyl)amino)pyrimido[5,4-d]pyrimidin-2-yl)-2-methylpiperazin-1-yl)prop-2-en-1-one]	–	100 to 500	< 50	100 to 500	≥ 5000
CC#CC(=O)N1CCN(c2ncc3ncnc(Nc4ccc(Oc5ccc6c(c5)nnn6C)c(C)c4)c3n2)CC1 [Compound 55, 1-(4-(8-((3-methyl-4-((1-methyl-1H-benzo[d][1,2,3]triazol-5-yl)oxy)phenyl)amino)pyrimido [5,4-d]pyrimidin-2-yl)piperazin-1-yl) but-2-yn-1-one]	–	100 to 500	500 to 1000	100 to 500	≥ 5000

Results, then the compound that gave them:

Kp uu at 1 h [1]	IC50 (ErbB2 V777L) [nM]	IC50 (EGFR WT) [nM]	IC50 (ErbB2 mutant L755S) [nM]	IC50 (EGFR wild type) [nM]	SMILES
–	50 to 100	100 to 500	< 100	≥ 5000	C=CC(=O)N1C2CC1CN(c1ccc3ncnc(Nc4ccc(Oc5ccc6c(c5)nnn6C)c(C)c4)c3n1)C2 [Compound 93, 1-(3-(4-((3-methyl-4-((1-methyl-1H-benzo[d][1,2,3]triazol-5-yl)oxy)phenyl)amino)pyrido[3,2-d]pyrimidin-6-yl)-3,6-diazabicyclo[3.1.1]heptan-6-yl)prop-2-en-1-one]
–	100 to 500	100 to 500	100 to 500	≥ 5000	C=CC(=O)N1CCN(c2ncc3ncnc(Nc4ccc(Oc5ccn6ncnc6c5)c(C)c4F)c3c2F)CC1 [Compound 101, 1-(4-(4-((4-([1,2,4]triazolo[1,5-a]pyridin-7-yloxy)-2-fluoro-3-methylphenyl)amino)-5-fluoropyrido[3,4-d]pyrimidin-6-yl)piperazin-1-yl)prop-2-en-1-one]
–	100 to 500	500 to 1000	100 to 500	≥ 5000	C=CC(=O)N1CCN(c2ncc3ncnc(Nc4ccc(Oc5ccc6c(c5)nnn6C)c(C)c4)c3c2OC)CC1 [Compound 105]
–	50 to 100	–	100 to 500	≥ 5000	C=CC(=O)N1CCC(Sc2ncc3ncnc(Nc4ccc(Oc5ccc6c(c5)ncn6C)c(C)c4F)c3n2)CC1 [Compound 107, 1-(4-((8-((2-fluoro-3-methyl-4-((1-methyl-1H-benzo[d]imidazol-5-yl)oxy)phenyl)amino)pyrimido[5,4-d]pyrimidin-2-yl)thio)piperidin-1-yl)prop-2-en-1-one]
–	–	50 to 100	–	≥ 5000	C=CC(=O)N1CC=C(c2ccc3ncnc(Nc4ccc(Oc5ccc6c(c5)nnn6C)c(C)c4)c3n2)C1 [Compound 110, 1-(3-(4-((3-methyl-4-((1-methyl-1H-benzo[d][1,2,3]triazol-5-yl)oxy)phenyl)amino)pyrido[3,2-d]pyrimidin-6-yl)-2,5-dihydro-1H-pyrrol-1-yl)prop-2-en-1-one]
0.04	–	100 to 500	–	–	C=CC(=O)N1CCN(c2ncc3ncnc(Nc4ccc(Oc5cnc6c(c5)ncn6C)c(C)c4)c3n2)CC1 [Compound 235, 1-(4-(8-((3-methyl-4-((3-methyl-3H-imidazo[4,5-b]pyridin-6-yl)oxy)phenyl)amino)pyrimido[5,4-d]pyrimidin-2-yl)piperazin-1-yl)prop-2-en-1-one]
